Holding throughout (assay): NCI anticancer screen, dose series, 48 h
The subject of experiment [1] is A549 NSCLC.
Experiment [2] has as its system HOP-62 NSCLC.
Experiment [3] relates to SF-539 CNS.
Experiment [4] relates to UACC-257 melanoma.
In experiment [5] the test system is HL-60(TB) leukemia.
For experiment [6], the system named is DU-145 prostate.
Experiment [7] relates to HCC-2998 colon.
Experiment [8] concerns SN12C renal.
The test system of experiment [9] is EKVX NSCLC.
Experiment [10] concerns NCI-H23 lung.

Values joined by “and” are separate entries in the source; they are usually repeats but may differ in a detail not shown here. Identical values can stand only once.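 The compound was tested at five concentrations on cells cultured in 96-well plates, with a 48-hour exposure period. The concentration for 50% growth inhibition is given as GI50. Definition used: TGI = concentration required for complete inhibition of growth.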

GI50 and TGI data for six molecules are collected here from PubChem BioAssay (NCI).

Turning to `COc1cc(/C=N/NC(=O)c2ccccc2Nc2cccc(C(F)(F)F)c2)cc(OC)c1OC`, the GI50 was 3.6 µM in [1]; 3.23 µM in experiment [2]; 2.14 µM in [3]; 4.36 µM in [4]; 2.01 µM in experiment [5]; 2.61 µM in experiment [6]. Also, the GI50 in experiment [7] was 5.29 µM; in [8] it was 5.94 µM; in experiment [9] it was 3.08 µM; in experiment [10], 6.37 µM. Also, the TGI in experiment [1] was 10.8 µM; in experiment [2] it was 11 µM; in experiment [3], 5.62 µM; in [4] it was 15.4 µM; in experiment [5], 4.73 µM; in experiment [6] it was 8.39 µM. Moreover, the TGI was 15.6 µM in [7], 15.4 µM in experiment [8], 19.5 µM in experiment [9] and 23.1 µM in [10].

As for `O=C(/C=C/c1ccco1)c1ccc(Nc2nc(Nc3ccc(F)cc3)nc(Nc3ccc(F)cc3)n2)cc1`, the GI50 in experiment [1] was 19.8 µM; in experiment [2], 57.4 µM; in experiment [3], 24.8 µM; in [4], > 100 µM; in experiment [5], 17.5 µM; in experiment [6], 28.8 µM. Moreover, the GI50 in [7] was 36 µM; in experiment [8], 54.8 µM; in experiment [9], 54.3 µM; in [10], 16.4 µM. Moreover, the TGI in experiment [1] was > 100 µM; in [2], > 100 µM; in [3] it was 63.5 µM; in experiment [4], > 100 µM; in [5], 52.9 µM; in [6], > 100 µM. The TGI in experiment [7] was > 100 µM; in [8], > 100 µM; in experiment [9], > 100 µM; in [10], 37 µM.

In the case of `Cc1ccc(S(=O)(=O)NC(CO)C(=O)O)cc1` (stereo not drawn), the TGI in [1], in [2], in experiment [3], in experiment [4], in [5] and in [6] was > 100 µM throughout. The TGI in [7], in experiment [8], in experiment [9] and in experiment [10] was > 100 µM throughout.

Turning to `COc1ccc(C(=O)c2cc3c(N)c(C(=O)Nc4cccc(OC)c4)sc3nc2C)cc1`, the GI50 is 0.753 µM in [1]; 0.372 µM in experiment [3]; > 100 µM in experiment [4]; 0.311 µM in experiment [5]; 0.523 µM in [6]; 2.2 µM in [7]. For the same molecule, the values for the GI50 in experiment [8], in [9] and in experiment [10] were 0.867 µM, 0.997 µM and 1.7 µM, respectively. Moreover, the TGI in experiment [1] was > 100 µM; in experiment [2], > 100 µM; in [3], 2.59 µM; in experiment [4] it was > 100 µM; in experiment [5], 1.52 µM; in [6] it was > 100 µM. For the same molecule, the TGI in experiment [7], in experiment [8], in experiment [9] and in experiment [10] was > 100 µM throughout.

`O=C(C=C=Nc1ccccc1)C(=O)N=C=Cc1ccccc1`: the GI50 in experiment [1] is 6.74 µM; in [2], 21.4 µM; in experiment [3], 9.39 µM; in experiment [4] it was 2.38 µM; in experiment [5], 1.7 µM; in [6] it was 2.24 µM. The GI50 was 4.04 µM in experiment [7], 4.71 µM in experiment [8], 6.81 µM in experiment [9] and 4.55 µM in [10]. Further, the TGI stood at 22.9 µM in [1]; 52.6 µM in [2]; 23 µM in experiment [3]; 5.56 µM in experiment [4]; 6.98 µM in experiment [5]; 6.82 µM in experiment [6]. In addition, the TGI in experiment [7] came to 9.49 µM; in [8], 19.4 µM; in experiment [9] it was 22.8 µM; in experiment [10], 19.5 µM.

As for `CC(/C=N/N=C(N)N)=N\N=C(N)N`, the GI50 in experiment [1] is > 52.4 µM; in experiment [2], 14.8 µM; in experiment [3] it was 21.8 µM; in [4], > 73.7 µM; in experiment [5] it was 69.1 µM; in experiment [6] it was 31 µM. Moreover, the GI50 in [7] was 9.52 µM; in [9], 61.5 µM; in experiment [10], 31.1 µM. Moreover, the TGI in experiment [1] amounted to 1780 µM; in experiment [2], 46.9 µM; in experiment [3] it was 103 µM; in experiment [4] it was 521 µM; in experiment [5] it was 578 µM; in experiment [6] it was 2240 µM. Besides, the TGI in experiment [7] was > 48.3 µM and 62.7 µM; in experiment [8], 941 µM; in [9] it was 499 µM; in experiment [10] it was > 61.8 µM and 171 µM.
